The numbers were not newly measured in US9180191B2, “Treatment of suicidal ideation or behavior using inhibitors of nicotinic acetylcholine receptors” (UNIVERSITY OF SOUTH FLORIDA, priority 2009, dated 2015), which cites them from elsewhere.

The conditions of data set [1]: for teratogen class: FDA Approved Labeling Text.
For data set [2] the following is noted: for risk of neuroleptic malignant syndrome: patients receiving the drug.
The conditions of data set [3]: major depressive disorder, inadequate response to prior antidepressant, two 6 week studies.
For data set [4], the system named is serotonergic, dopaminergic, and a-adrenergic receptors.
Assay in data set [5]: not given
The source holds these as a separate data set.

Data set [6] relates to muscarinic cholinergic receptors.
Assay in data set [7]: not given
This is another data set of the same source.

In data set [8] the test system is physiological response to nicotine. The note with it: chronic administration, rodents.
In data set [9] the test system is brain-derived neurotrophic factor (BDNF). The note with it: in vivo.
For data set [10] the following is noted: schizophrenic patients with persistent ongoing symptoms.
The conditions of data set [11]: bipolar I or II disorder, acute bipolar depression.
Assay in data set [12]: not given
The source holds these as a separate data set.

For data set [13] the following is noted: treatment resistant psychotic bipolar patients, 24 months of observation.
For data set [14] the following is noted: for reducing suicidal ideation versus placebo: week 8 (endpoint), p<0.001.
For data set [15] the following is noted: smoking cessation.
Setting [16] is: clinical trials in schizophrenia.
Setting [17] is: bipolar I, manic and mixed symptoms.

SMILES strings stand for the structures. Read-outs that look alike come from different tables or passages of the source.

`O=C1CCc2ccc(OCCCCN3CCN(c4cccc(Cl)c4Cl)CC3)cc2N1` [aripiprazole]: in data set [1], the teratogen class result was “Class-C teratogen”. For the same molecule, the “most commonly observed side effects” value in [2] (clinical trials in mood disorders (bipolar I disorder and major depressive disorder)) was “akathisia, sedation, restlessness, tremor, insomnia, constipation, fatigue, blurred vision and extrapyramidal disorder”. For the same molecule, the “risk of neuroleptic malignant syndrome” value in [2] is “extremely rare”. Further, the “efficacy versus placebo in acute use” value (bipolar I, manic and mixed symptoms, 3 week trials) is “rapid and significant advantage compared to placebo”. Also, under “bipolar I, manic or mixed state, inadequate improvement on mood stabilizer monotherapy”, the “efficacy versus placebo as adjunctive therapy (with lithium or valproate)” value is recorded as “superior to placebo”. For the same molecule, the “profile and tolerability with long-term use” value (long-term use up to 6 months) is “favorable profile and tolerability”. The “efficacy versus placebo as adjunctive therapy with antidepressants” value in data set [3] is “superior to placebo”.

In the case of `CN1CC2c3ccccc3Oc3ccc(Cl)cc3C2C1` (stereo not shown) [asenapine], in [1], the teratogen class result is listed as “Class-C teratogen”. Moreover, the “most commonly observed side effects” value in data set [2] (setting [16]) was “anxiety, somnolence, EPS, dizziness, constipation, nausea, dyspepsia, rhinitis, rash, and tachycardia”. In addition, in [2], the “risk of neuroleptic malignant syndrome” value is “extremely rare”. Also, in [4], the “affinity for serotonergic, dopaminergic, and a-adrenergic receptors” value is recorded as “high affinity”. Moreover, in data set [5] (setting [17]), the “efficacy versus olanzapine in extended use” value is recorded as “efficacy comparable to olanzapine”; the “efficacy versus placebo in acute use” value was “rapid and significant advantage compared to placebo”. Further, the “efficacy versus placebo as adjunctive therapy” value in [5] (bipolar patients with inadequate improvement on mood stabilizer monotherapy) is on record as “superior to placebo”. Further, the “profile and tolerability with long-term use” value in [5] (long-term use) is “favorable profile and tolerability”. In [6], the “affinity for muscarinic cholinergic receptors” value is reported as “no appreciable affinity”.

`O=C([O-])[O-].[Li+].[Li+]` [lithium, Lithium carbonate]: the “fatality rate due to suicide after discontinuing lithium compared to the rate during lithium maintenance” value in data set [7] (after discontinuing lithium) is listed as 12.6 times higher. Also, the “incidence of attempted and completed suicide compared to those who did not receive lithium” value in [7] (long-term lithium treatment) is 13 fold lower. Further, in data set [7] (recurrent unipolar major depressive disorder and bipolar disorder), the effect on suicidality entry is “consistently reduces suicidality”. Moreover, the use in pregnancy entry in data set [1] (pregnancy) is given as “associated with neural tube defects”. The “most commonly observed side effects” value in data set [2] (lithium, population not given) was “tremor, diarrhea, polydipsia, polyuria and nausea”. Also, in data set [8], the “physiological response to nicotine” value was “decreases their physiological response to nicotine”. Also, in data set [9], the “effect on brain BDNF levels” value was “increase brain BDNF levels”.

For `OCCOCCN1CCN(C2=Nc3ccccc3Sc3ccccc32)CC1` [quetiapine], the “depressive symptoms versus haloperidol” value in [10] is recorded as “reduce depressive symptoms more than haloperidol”. The teratogen class entry in data set [1] was “Class-C teratogen”. For the same molecule, the “reducing depressive and anxiety symptoms versus placebo” value in [11] was “superior to placebo”. Moreover, the “most commonly observed side effects” value in data set [2] (setting [16]) is “anxiety, somnolence, EPS, dizziness, constipation, nausea, dyspepsia, rhinitis, rash, and tachycardia”. For the same molecule, the “risk of neuroleptic malignant syndrome” value in [2] is on record as “extremely rare”. Also, the “efficacy versus placebo in combination with divalproex” value in data set [12] (adolescent patients with acute bipolar I mania) is listed as “superior to placebo”. Besides, in data set [12] (hospitalized adult patients with acute mania), the “efficacy versus placebo in combination with lithium or divalproex” value is on record as “superior to placebo”. Moreover, in [12] (hospitalized patients with bipolar I disorder, two 12-week trials), the “efficacy versus placebo as monotherapy in acute bipolar mania” value was “superior to placebo”. Also, in [13], the suicidality entry was “effective in lowering suicidality”. The “reducing suicidal ideation versus placebo” value in data set [14] (300 mg/day) and in data set [14] (600 mg/day) was “more effective than placebo” throughout. The “mean percent reduction in suicidal thoughts” value in data set [14] (542 outpatients, bipolar I and II depression, placebo approximately 30%) is given as “approximately 60%”. Moreover, in data set [14] (bipolar I and II depression), the “reduction in suicidal ideation relative to placebo, item 10 on the MADRS” value is “approximately twice”.

Take `c1cnc2cc3c(cc2n1)[C@@H]1CNC[C@H]3C1` [varenicline]: the “risk of suicidality relative to other treatments (i.e., buproprion, Zyban)” value in [15] is reported as “increase in the risk of suicidality”.
